{
  "source": "ChEMBL document CHEMBL2384934",
  "about": "“Discovery of 3-phenyl-1H-5-pyrazolylamine derivatives containing a urea pharmacophore as potent and efficacious inhibitors of FMS-like tyrosine kinase-3 (FLT3)” (Bioorg Med Chem, 2013)",
  "key": {"[1]": {"biological_target": "Mitogen-activated protein kinase 14 (Homo sapiens) (UniProt Q16539)", "test": "Inhibition of MAPK14 (unknown origin) at 1 uM"}, "[2]": {"biological_target": "Proto-oncogene tyrosine-protein kinase receptor Ret (Homo sapiens) (UniProt P07949)", "sequence (P07949 whole entry)": "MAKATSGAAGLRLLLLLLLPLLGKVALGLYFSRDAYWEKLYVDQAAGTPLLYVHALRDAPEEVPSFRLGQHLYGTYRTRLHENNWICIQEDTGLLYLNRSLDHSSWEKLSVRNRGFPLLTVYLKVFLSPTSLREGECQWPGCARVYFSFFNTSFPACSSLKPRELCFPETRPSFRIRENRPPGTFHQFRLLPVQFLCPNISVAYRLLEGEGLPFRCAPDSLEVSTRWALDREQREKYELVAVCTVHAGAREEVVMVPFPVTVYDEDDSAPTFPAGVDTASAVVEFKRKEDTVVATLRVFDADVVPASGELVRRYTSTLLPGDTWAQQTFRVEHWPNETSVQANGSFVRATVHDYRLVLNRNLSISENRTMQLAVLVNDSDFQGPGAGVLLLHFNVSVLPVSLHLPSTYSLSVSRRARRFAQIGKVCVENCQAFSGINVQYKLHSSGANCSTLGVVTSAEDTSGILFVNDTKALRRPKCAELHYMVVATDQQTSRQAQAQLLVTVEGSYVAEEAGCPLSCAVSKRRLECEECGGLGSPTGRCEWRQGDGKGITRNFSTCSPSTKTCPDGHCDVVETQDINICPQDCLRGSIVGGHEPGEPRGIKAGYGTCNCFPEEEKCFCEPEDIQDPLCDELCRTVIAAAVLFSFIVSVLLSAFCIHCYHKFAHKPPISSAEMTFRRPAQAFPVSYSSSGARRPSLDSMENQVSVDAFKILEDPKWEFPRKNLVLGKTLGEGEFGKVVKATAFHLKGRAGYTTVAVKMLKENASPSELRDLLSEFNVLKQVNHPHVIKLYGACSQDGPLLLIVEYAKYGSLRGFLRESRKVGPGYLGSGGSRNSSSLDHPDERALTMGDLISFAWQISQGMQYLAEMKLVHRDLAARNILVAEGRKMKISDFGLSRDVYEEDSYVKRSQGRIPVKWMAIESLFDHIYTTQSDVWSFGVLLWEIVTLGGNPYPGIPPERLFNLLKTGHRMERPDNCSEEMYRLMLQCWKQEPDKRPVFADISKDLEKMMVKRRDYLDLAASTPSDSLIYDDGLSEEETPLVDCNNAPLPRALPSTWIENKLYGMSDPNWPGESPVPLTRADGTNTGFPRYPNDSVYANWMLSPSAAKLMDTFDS", "test": "Inhibition of RET (unknown origin) at 1 uM"}, "[3]": {"biological_target": "Serine/threonine-protein kinase mTOR (Homo sapiens) (UniProt P42345)", "test": "Inhibition of FRAP1 (unknown origin) at 1 uM by kinase Glo assay"}, "[4]": {"biological_target": "Non-receptor tyrosine-protein kinase TYK2 (Homo sapiens) (UniProt P29597)", "test": "Inhibition of TYK2 (unknown origin) at 1 uM"}, "[5]": {"test_system": "MOLM-13", "test": "Antitumor activity against human MOLM13 cells xenografted in nu/nu mouse at 3 mg/kg, iv qd administered on days 1 to 5 and days 8 to 12 measured on day 11", "assay_type": "functional", "settings": "MOLM-13, 264 h, read-out: TGI"}, "[6]": {"biological_target": "Glycogen synthase kinase-3 alpha (Homo sapiens) (UniProt P49840)", "test": "Inhibition of GSK3A (unknown origin) at 1 uM"}, "[7]": {"biological_target": "Ephrin type-A receptor 2 (Homo sapiens) (UniProt P29317)", "sequence (P29317 whole entry)": "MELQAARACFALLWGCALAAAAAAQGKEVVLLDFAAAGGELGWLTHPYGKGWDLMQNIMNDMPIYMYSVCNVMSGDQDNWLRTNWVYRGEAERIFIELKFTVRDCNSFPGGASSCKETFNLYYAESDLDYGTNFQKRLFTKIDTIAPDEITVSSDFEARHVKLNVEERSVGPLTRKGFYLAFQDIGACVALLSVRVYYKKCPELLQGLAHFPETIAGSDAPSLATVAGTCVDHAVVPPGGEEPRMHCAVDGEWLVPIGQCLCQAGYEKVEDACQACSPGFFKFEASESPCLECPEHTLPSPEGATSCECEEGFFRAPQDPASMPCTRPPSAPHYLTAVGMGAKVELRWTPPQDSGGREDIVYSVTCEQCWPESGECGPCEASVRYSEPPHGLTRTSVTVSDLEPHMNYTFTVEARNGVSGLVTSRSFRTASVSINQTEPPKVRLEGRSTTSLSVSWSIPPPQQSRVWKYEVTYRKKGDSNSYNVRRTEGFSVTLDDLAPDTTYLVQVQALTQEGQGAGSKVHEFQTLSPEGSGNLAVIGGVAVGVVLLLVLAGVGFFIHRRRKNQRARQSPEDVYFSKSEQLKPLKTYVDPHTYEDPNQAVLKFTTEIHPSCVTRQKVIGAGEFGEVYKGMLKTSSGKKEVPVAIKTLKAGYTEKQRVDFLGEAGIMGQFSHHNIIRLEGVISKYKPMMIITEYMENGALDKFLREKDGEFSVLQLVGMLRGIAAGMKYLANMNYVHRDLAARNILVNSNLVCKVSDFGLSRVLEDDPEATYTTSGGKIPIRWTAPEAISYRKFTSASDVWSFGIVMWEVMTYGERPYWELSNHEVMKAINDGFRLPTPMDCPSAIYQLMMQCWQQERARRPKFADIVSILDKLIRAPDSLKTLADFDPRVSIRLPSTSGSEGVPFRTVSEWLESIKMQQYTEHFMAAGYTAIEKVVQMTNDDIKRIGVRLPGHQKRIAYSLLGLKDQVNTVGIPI", "test": "Inhibition of EPHA2 (unknown origin) at 1 uM"}, "[8]": {"biological_target": "Proto-oncogene tyrosine-protein kinase Src (Homo sapiens) (UniProt P12931)", "test": "Inhibition of SRC (unknown origin) at 1 uM"}, "[9]": {"biological_target": "Mitogen-activated protein kinase 8 (Homo sapiens) (UniProt P45983)", "test": "Inhibition of MAPK8 (unknown origin) at 1 uM"}, "[10]": {"biological_target": "Mitogen-activated protein kinase 10 (Homo sapiens) (UniProt P53779)", "sequence (P53779 whole entry)": "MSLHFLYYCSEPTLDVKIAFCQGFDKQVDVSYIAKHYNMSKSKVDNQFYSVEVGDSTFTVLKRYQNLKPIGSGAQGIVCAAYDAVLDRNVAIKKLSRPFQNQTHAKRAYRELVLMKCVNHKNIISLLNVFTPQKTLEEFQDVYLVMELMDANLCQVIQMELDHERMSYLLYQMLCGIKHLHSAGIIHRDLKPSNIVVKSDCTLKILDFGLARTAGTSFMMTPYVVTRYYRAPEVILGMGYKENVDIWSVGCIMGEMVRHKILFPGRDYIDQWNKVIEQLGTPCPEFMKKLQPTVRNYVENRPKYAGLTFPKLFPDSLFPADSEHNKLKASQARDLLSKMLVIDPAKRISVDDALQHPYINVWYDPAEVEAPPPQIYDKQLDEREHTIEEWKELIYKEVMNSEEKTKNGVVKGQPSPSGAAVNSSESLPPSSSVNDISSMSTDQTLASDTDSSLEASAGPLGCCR", "test": "Inhibition of MAPK10 (unknown origin) at 1 uM"}, "[11]": {"biological_target": "T1, AMP-activated protein kinase (AMPK) alpha-1/beta-1/gamma-1 (Homo sapiens) (UniProt P54619+Q9Y478+Q13131)", "T1 sequence (P54619 whole entry)": "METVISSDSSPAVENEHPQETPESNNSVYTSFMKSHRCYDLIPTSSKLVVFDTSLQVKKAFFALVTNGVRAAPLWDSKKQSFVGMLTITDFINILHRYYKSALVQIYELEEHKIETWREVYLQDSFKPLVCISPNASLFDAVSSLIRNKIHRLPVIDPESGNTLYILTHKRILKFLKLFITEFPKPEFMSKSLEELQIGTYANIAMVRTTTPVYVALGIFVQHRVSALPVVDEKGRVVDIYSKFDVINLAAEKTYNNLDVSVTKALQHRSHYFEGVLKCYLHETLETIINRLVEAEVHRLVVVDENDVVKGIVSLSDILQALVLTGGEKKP", "T1 sequence (Q13131 whole entry partner)": "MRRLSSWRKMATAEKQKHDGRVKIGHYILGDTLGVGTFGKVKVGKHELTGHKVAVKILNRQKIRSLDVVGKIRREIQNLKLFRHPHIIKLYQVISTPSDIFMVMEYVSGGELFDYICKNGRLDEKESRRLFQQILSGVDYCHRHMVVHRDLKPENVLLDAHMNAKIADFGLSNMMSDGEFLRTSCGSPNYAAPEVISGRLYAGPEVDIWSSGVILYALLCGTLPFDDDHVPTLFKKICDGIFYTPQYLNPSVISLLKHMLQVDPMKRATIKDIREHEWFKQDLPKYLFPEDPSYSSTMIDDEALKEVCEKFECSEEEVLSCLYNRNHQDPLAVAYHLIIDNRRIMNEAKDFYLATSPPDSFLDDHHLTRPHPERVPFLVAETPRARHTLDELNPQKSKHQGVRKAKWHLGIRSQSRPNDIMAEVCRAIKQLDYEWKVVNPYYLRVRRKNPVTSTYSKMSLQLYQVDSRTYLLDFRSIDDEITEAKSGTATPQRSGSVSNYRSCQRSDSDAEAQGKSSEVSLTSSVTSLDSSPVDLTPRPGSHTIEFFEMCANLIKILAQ", "T1 sequence (Q9Y478 2-270 partner limits assumed)": "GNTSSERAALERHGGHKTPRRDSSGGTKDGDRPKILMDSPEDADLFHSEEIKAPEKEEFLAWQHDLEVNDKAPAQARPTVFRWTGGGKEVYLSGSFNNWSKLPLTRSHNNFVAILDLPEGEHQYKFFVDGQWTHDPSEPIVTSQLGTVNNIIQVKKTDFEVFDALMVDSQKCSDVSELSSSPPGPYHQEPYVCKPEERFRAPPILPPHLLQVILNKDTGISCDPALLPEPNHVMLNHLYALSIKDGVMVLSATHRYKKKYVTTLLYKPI", "test": "Inhibition of AMPK A1/B1/G1 (unknown origin) at 1 uM by kinase Glo assay", "assay_type": "protein-complex assay"}, "[12]": {"biological_target": "Inhibitor of nuclear factor kappa-B kinase subunit epsilon (Homo sapiens) (UniProt Q14164)", "test": "Inhibition of IKBKE (unknown origin) at 1 uM"}, "[13]": {"biological_target": "Inhibitor of nuclear factor kappa-B kinase subunit beta (Homo sapiens) (UniProt O14920)", "test": "Inhibition of IKBKB (unknown origin) at 1 uM"}, "[14]": {"test_system": "Mus musculus", "test": "Toxicity in mouse assessed as loss of body weight at 25 mg/kg, iv for 5 days", "assay_type": "organism-based", "design": "dose 25 mg/kg, route intravenous", "settings": "in vivo, 120 h"}, "[15]": {"biological_target": "Hepatocyte growth factor receptor (Homo sapiens) (UniProt P08581)", "test": "Inhibition of MET (unknown origin) at 1 uM"}, "[16]": {"biological_target": "Insulin-like growth factor 1 receptor (Homo sapiens) (UniProt P08069)", "test": "Inhibition of IGF1R (unknown origin) at 1 uM"}, "[17]": {"biological_target": "Serine/threonine-protein kinase Chk1 (Homo sapiens) (UniProt O14757)", "test": "Inhibition of CHK1 (unknown origin) at 1 uM by kinase Glo assay"}, "[18]": {"biological_target": "Aurora kinase B (Homo sapiens) (UniProt Q96GD4)", "test": "Inhibition of AURKB (unknown origin) at 1 uM"}, "[19]": {"biological_target": "Tyrosine-protein kinase BTK (Homo sapiens) (UniProt Q06187)", "test": "Inhibition of BTK (unknown origin) at 1 uM"}, "[20]": {"biological_target": "Tyrosine-protein kinase receptor TYRO3 (Homo sapiens) (UniProt Q06418)", "test": "Inhibition of TYRO3 (unknown origin) at 1 uM"}, "[21]": {"biological_target": "Vascular endothelial growth factor receptor 1 (Homo sapiens) (UniProt P17948)", "test": "Inhibition of FLT1 (unknown origin) at 1 uM"}, "[22]": {"biological_target": "High affinity nerve growth factor receptor (Homo sapiens) (UniProt P04629)", "test": "Inhibition of NTRK1 (unknown origin) at 1 uM"}, "[23]": {"test": "Half life in Sprague-Dawley rat at 2 mg/kg, iv", "assay_type": "ADME, organism-based", "design": "dose 2 mg/kg, route intravenous", "settings": "in vivo"}, "[24]": {"biological_target": "Tyrosine-protein kinase JAK1 (Homo sapiens) (UniProt P23458)", "test": "Inhibition of JAK1 (unknown origin) at 1 uM"}, "[25]": {"biological_target": "T1, AMP-activated protein kinase (AMPK) alpha-1/beta-1/gamma-1 (Homo sapiens)", "test": "Inhibition of Ampk A1/B1/G1 (unknown origin) at 1 uM", "assay_type": "protein-complex assay"}, "[26]": {"biological_target": "T2, Receptor-type tyrosine-protein kinase FLT3 (Homo sapiens, UniProt P36888)", "T2 sequence (P36888 whole entry)": "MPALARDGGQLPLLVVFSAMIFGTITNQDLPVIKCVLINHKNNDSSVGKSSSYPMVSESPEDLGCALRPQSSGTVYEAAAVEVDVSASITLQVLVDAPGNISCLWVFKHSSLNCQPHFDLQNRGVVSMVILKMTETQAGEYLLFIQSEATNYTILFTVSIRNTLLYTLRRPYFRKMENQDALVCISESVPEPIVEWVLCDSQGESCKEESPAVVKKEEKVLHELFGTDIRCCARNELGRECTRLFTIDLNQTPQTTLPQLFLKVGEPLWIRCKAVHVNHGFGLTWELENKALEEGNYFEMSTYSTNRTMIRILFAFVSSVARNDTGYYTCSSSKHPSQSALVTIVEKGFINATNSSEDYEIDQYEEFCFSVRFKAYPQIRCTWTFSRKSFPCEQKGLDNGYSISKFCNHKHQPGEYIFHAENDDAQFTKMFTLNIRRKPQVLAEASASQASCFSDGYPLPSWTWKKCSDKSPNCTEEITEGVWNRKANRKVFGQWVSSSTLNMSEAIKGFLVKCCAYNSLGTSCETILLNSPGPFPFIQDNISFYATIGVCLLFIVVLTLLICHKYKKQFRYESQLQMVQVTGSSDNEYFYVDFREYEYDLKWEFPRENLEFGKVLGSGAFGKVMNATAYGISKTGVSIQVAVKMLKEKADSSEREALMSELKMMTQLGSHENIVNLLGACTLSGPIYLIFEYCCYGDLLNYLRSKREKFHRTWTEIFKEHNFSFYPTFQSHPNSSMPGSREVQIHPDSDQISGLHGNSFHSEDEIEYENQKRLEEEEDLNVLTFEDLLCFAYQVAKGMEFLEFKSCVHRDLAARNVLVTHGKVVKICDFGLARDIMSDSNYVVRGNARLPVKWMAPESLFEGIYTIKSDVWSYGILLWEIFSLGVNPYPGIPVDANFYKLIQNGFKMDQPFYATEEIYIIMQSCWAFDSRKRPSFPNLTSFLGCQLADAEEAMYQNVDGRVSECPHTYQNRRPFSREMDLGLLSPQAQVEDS", "test": "biochemical", "assay_type": "cell-based, Sf9", "description": "Inhibition of wild type GST tagged FLT3 kinase (567 to 993) (unknown origin) transfected in insect sf9 cells after 4 hrs by wallac counting analysis"}, "[27]": {"biological_target": "Mast/stem cell growth factor receptor Kit (Homo sapiens) (UniProt P10721)", "test": "Inhibition of KIT (unknown origin) at 1 uM"}, "[28]": {"biological_target": "Dual specificity mitogen-activated protein kinase kinase 1 (Homo sapiens) (UniProt Q02750)", "test": "Inhibition of MAP2K1 (unknown origin) at 1 uM"}, "[29]": {"biological_target": "Glycogen synthase kinase-3 beta (Homo sapiens) (UniProt P49841)", "test": "Inhibition of GSK3B (unknown origin) at 1 uM"}, "[30]": {"biological_target": "Angiopoietin-1 receptor (Homo sapiens) (UniProt Q02763)", "sequence (Q02763 whole entry)": "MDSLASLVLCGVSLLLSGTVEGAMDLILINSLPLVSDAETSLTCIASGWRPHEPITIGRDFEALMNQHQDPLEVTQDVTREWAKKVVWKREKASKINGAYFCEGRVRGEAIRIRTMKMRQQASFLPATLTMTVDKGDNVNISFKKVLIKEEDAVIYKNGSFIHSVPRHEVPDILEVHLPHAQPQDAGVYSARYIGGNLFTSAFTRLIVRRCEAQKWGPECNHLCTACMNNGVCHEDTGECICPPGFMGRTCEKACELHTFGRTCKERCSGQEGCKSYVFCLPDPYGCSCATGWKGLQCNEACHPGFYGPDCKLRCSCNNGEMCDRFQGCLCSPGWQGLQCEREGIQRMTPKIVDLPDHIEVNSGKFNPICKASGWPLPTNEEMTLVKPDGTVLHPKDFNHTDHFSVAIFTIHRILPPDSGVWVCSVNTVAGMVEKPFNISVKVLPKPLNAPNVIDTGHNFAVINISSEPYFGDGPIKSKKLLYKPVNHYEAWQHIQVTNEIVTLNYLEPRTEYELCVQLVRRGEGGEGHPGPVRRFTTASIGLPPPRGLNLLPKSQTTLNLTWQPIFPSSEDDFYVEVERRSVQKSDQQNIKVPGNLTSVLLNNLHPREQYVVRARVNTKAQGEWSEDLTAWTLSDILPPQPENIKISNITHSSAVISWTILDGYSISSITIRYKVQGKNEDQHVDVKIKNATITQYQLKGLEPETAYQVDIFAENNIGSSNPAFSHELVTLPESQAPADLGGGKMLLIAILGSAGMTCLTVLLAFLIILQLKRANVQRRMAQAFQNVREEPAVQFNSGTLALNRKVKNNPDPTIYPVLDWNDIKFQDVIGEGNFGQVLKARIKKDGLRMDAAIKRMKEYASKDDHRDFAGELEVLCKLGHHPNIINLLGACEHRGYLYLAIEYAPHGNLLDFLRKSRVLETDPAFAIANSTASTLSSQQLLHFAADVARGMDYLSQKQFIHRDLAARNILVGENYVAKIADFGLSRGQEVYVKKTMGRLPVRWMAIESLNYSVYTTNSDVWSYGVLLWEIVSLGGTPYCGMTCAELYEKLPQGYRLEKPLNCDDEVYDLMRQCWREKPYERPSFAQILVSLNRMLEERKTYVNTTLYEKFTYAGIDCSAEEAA", "test": "Inhibition of TEK (unknown origin) at 1 uM"}},
  "note": "pIC50: −log10 of the molar value.",
  "data": [
    {"compound": "CC(C)(C)c1cc(NC(=O)NCc2ccc(-c3cc(NC(=O)c4ccc(OCCN5CCOCC5)cc4)[nH]n3)cc2)no1", "values": [
      {"measurement": "inhibition", "setting": "[1]", "result": 3, "unit": "%"},
      {"measurement": "inhibition", "setting": "[2]", "result": 97, "unit": "%"},
      {"measurement": "inhibition", "setting": "[3]", "result": -1, "unit": "%"},
      {"measurement": "inhibition", "setting": "[4]", "result": 86, "unit": "%"},
      {"measurement": "inhibition in vivo at 3 mg/kg", "setting": "[5]", "result": 7, "unit": "%"},
      {"measurement": "inhibition", "setting": "[6]", "result": 6, "unit": "%"},
      {"measurement": "inhibition", "setting": "[7]", "result": 19, "unit": "%"},
      {"measurement": "inhibition", "setting": "[8]", "result": 35, "unit": "%"},
      {"measurement": "inhibition", "setting": "[9]", "result": -3, "unit": "%"},
      {"measurement": "inhibition", "setting": "[10]", "result": -3, "unit": "%"},
      {"measurement": "inhibition", "setting": "[11]", "result": 48, "unit": "%"},
      {"measurement": "inhibition", "setting": "[12]", "result": -5, "unit": "%"},
      {"measurement": "inhibition", "setting": "[13]", "result": -2, "unit": "%"},
      {"measurement": "Activity", "setting": "[14]", "result": "Non-toxic"},
      {"measurement": "inhibition", "setting": "[15]", "result": 2, "unit": "%"},
      {"measurement": "inhibition", "setting": "[16]", "result": -1, "unit": "%"},
      {"measurement": "inhibition", "setting": "[17]", "result": 2, "unit": "%"},
      {"measurement": "inhibition", "setting": "[18]", "result": 79, "unit": "%"},
      {"measurement": "inhibition", "setting": "[19]", "result": -6, "unit": "%"},
      {"measurement": "inhibition", "setting": "[20]", "result": 24, "unit": "%"},
      {"measurement": "inhibition", "setting": "[21]", "result": 99, "unit": "%"},
      {"measurement": "inhibition", "setting": "[22]", "result": 98, "unit": "%"},
      {"measurement": "half-life", "setting": "[23]", "result": 6.2, "unit": "h"},
      {"measurement": "inhibition", "setting": "[24]", "result": 82, "unit": "%"},
      {"measurement": "inhibition", "setting": "[25]", "result": 94, "unit": "%"},
      {"measurement": "pIC50", "setting": "[26]", "result": 7.74},
      {"measurement": "inhibition", "setting": "[27]", "result": 68, "unit": "%"},
      {"measurement": "inhibition", "setting": "[28]", "result": 13, "unit": "%"},
      {"measurement": "inhibition", "setting": "[29]", "result": 2, "unit": "%"},
      {"measurement": "inhibition", "setting": "[30]", "result": 83, "unit": "%"}
    ]}
  ]
}
